In patent US12485100B2, “Treatment of menstrual cycle-induced symptoms” (Period Pill BV, priority 2019, dated 2025):
“Also recorded” adds a separate entry of the source.

How the values were obtained:
[1] = system: women with menstrual cycle-induced symptoms (e.g. PMS, PMDD); experiment: Closed label trials of 3-MMC for menstrual cycle-induced symptoms (case reports of 11 women); assay type: in vivo, human
Text: The following case studies exemplify some aspects of some embodiments of the methods of the present invention for treating perimenstrual disorders in subjects suffering at least one menstrual cycle-induced symptom by administering 3-MMC.
Detailed reports of 11 experiences of women with unlabeled (“pill”) 3-MMC for menstrual cycle-induced symptoms.
Between the second half of 2018 and the first months of 2019, eleven women participated in a blinded trial of 3-MMC (the “pill”) administered to alleviate their menstrual cycle-induced symptoms. The subjects tried different doses ranging from 12.5 mg. up to 50 mg.
Each one of the women used the 3-MMC for relief for at least two to three consecutive menstrual periods, with the number of trials varying from two to seven per woman, making a total of 45 trials.
Thus, the experience with 3-MMC for menstrual cycle-induced symptoms reported here is from […] separate trials.

[2] = animal models, cited from earlier work
[3] = 12.5 mg then 25 mg with an interval of five hours (Ana)
[4] = one dose of 12.5 mg plus one dose of 25 mg, total 37.5 mg
[5] = one dose of 12.5 mg, individual trials
[6] = one dose of 25 mg, individual trials
[7] = two doses of 12.5 mg (Ana: interval of five hours; Jenny: equivalent to 25 mg)
[8] = two doses of 25 mg, one hour interval, total 50 mg (Katy)

SMILES: CNC(C)C(=O)c1cccc(C)c1 (centres unmarked) [3-MMC, 3-methylmethcathinone]
- relief of symptoms at low dose (overview) ([1]; 12.5 mg): while not consistent, was often effective in providing relief of symptoms
- Psychological reaction [1, 3]: experienced less emotional distress and felt much calmer
- Side effects [1, 3]: an outbreak of acne
- Response summary of the subject ([1]; 37.5 mg dose): more aware of themself, more concentrated, energetic, daring, calmer, but they would still be irritated or angry; also recorded: Rebecca felt actually very good
- undesired side effects (overview) ([1]; 30-35 mg): some undesired side effects, such as tachycardia or temperature changes were occasionally more noticeable
- effect when administered in anticipation of symptoms ([1]; administration prior to symptom onset): can significantly reduce the intensity as well as duration of many menstrual cycle induced symptoms
- most commonly reported psychological and emotional effects ([1]; all subjects): enhanced their overall sense of well-being, increased energy levels, induced calmness and relaxation and heightened abilities of concentration; also recorded: a sense of relaxation and calm, often combined with heightened energy and ability to concentrate
- most commonly reported side effects ([1]; all subjects, 12.5-50 mg): tachycardia, sensation of body temperature changes (usually feeling warmer or sometimes colder) and sweating
- overall reported experience / relief of symptoms ([1]; eleven women, about 60 trials, doses 12.5 mg up to 50 mg): Ten out of the eleven reported a rather good to a very positive experience; also recorded: A desired positive effect was achieved with most trials; also recorded: provided relief from more than one of the reported menstrual cycle-induced symptoms
- side effects, individual subject's summary over all their doses ([1]; individual subjects, all doses taken): they never perceived non-desired side-effects; also recorded: increased heartbeat and stomach pain on empty stomach; also recorded: noticed body temperature changes; also recorded: an unfamiliar tingling at the back of the tongue and throat; also recorded: They experienced no side effects or physical reactions worth mentioning; also recorded: had no physical reactions or undesired side effects with any of the doses; also recorded: some light and non-desirable effects such as body temperature changes
- Psychological reaction [1, 4]: more willing to do things with an energetic flow that lasted up to four hours; also recorded: they could still sense anger and irritation, but now more in control; also recorded: They felt less irritated, less angry and more relaxed; also recorded: No perceived psychological effect; also recorded: felt very much calmer and much more relaxed than usual; also recorded: felt more awake, more energetic, more alive, therefore less tired and irritated
- Side effects [1, 4]: Accelerated heartbeat, dizziness, feeling hot and sweating and Accelerated heartbeat, sweating and lack of appetite and None and Sweating and appetite loss
- Psychological reaction [1, 5]: felt more emotionally stable after one hour, less oversensitive, less anxious and they had a slightly heightened mood and felt less depressed, not lethargic, down or exhausted anymore and They were no longer feeling down and exhausted and Exhaustion, feeling down, mood swings, feeling alone and helpless, over sensitive, powerlessness, forgetfulness, willing to cry and Experiencing less anxiety and nervousness, feeling calmer and not very focused, only a little and less irritable but not a major difference and more relaxed, less emotionally distressed and Calmer and more stable and less mood swings, less upset, less emotional and less tired and Ines felt calmer, less nervous and emotional and less distressed and tense and None (they felt no effect whatsoever with this small dose) and None and None, not better nor worse
- Side effects [1, 5]: perceived no negative physical reactions or side effects and Stomach pain and none and none (apart from feeling warmer) and Tingling tongue, light somnolence and None
- Psychological reaction [1, 6]: emotional distress, mood swings and anxiety decreased; also recorded: Ana felt calmer and more relaxed; also recorded: felt less angry and irritated; also recorded: they were more focused, having a heightened mood, they felt less helpless and more in control; also recorded: experienced no emotional distress or feeling down or any tension; also recorded: no longer feeling low, anxious or distressed; also recorded: feeling focused and motivated to study; also recorded: feeling focused and more concentrated; also recorded: they could focus and concentrate on their studies and was also more motivated; also recorded: they felt relaxed, calmer; also recorded: Fanny felt calmer and stable; also recorded: no longer feeling upset, felt a lot calmer; also recorded: Small, but transient improvement in their mood; also recorded: felt more relaxed, less tense; also recorded: feeling noticeably less upset and less sad; also recorded: Jenny felt better, less anxious, less unhappy; also recorded: felt better and more relaxed; also recorded: Her sadness faded away; also recorded: relief of the sadness, not down or stressed anymore; also recorded: experienced slightly less tension; also recorded: a bit calmer, after two hours very relaxed, not crying anymore
- Side effects [1, 6]: none and None and stomach ache (on an empty stomach) and a higher heart rate and Cold hands and feet and drowsiness and some muscle pain or tension and Temporal slight stomach and muscle pain and Perceived body temperature changes, tingling sensation in the throat and Difficulty to go to sleep and somewhat tired and body temperature changes
- interaction with paracetamol ([1]; one subject (Bea), 12.5 mg 3-MMC combined with paracetamol): did not experience any undesirable interactions with the 3-MMC; also recorded: without any noticeable substance interaction or undesired effect
- side effects with repeated use ([1]; repeated use): side-effects tend to diminish over time with repeated use of 3-MMC
- effect when administered after onset of symptoms ([1]; some subjects): 3-MMC was effective even when administered after the onset of menstrual cycle-induced symptoms
- effect on somatic symptoms ([1]; some subjects (e.g. headache, physical pain)): administration of 3-MMC resulted in disappearance of somatic symptoms (e.g. headache); also recorded: can also produce a reduction in somatic symptoms (e.g. physical pain); also recorded: some of the subjects reported alleviation of somatic symptoms
- perceived effect ([1]; subject Gertie, 40 mg in one intake): a bit too much
- perceived benefit ([1]; subject Gertie, doses between 10 mg and 20 mg): They didn't perceive any benefit
- perceived benefit ([1]; subject Gertie, doses between 20 and 30 mg): They felt positive effects
- response and psychological effects ([1]; subject Gertie, one or two pills a couple of days before menstruation, usual dose 20-25 mg): feels less tense; also recorded: they are able to take decisions again; also recorded: a radical positive life change
- response summary ([1]; subject Ines, alternating doses of 12.5 mg and 25 mg, seven occasions): The main effect was calming and relaxing; also recorded: no significant dose response has been observed
- Psychological reaction [1, 7]: their emotional distress, feeling down, mood swings, helplessness and anxiety declined; also recorded: felt more energized, no longer down or sad
- Side effects [1, 7]: none and None
- Psychological reaction [1, 8]: no longer angry although they could still feel irritated; also recorded: They experienced reduced irritability and anger; also recorded: felt more energetic, less irritated and after two hours they were very calm
- Side effects [1, 8]: Increased heartbeat, sweating and loss of appetite; also recorded: No noticeable side effects; also recorded: a brief period (one hour) of depression
- cumulative positive effect of repeated administration ([1]; two or more consecutive doses within about 24 hours of each other): taking the pill two consecutive days made the effect of the second one last longer; also recorded: Possibly a cumulative effect; also recorded: a sort of a cumulative positive effect; also recorded: the positive effects of 3-MMC reportedly persisted; also recorded: positive effects persist
- time of peak serum concentrations ([2]; after oral administration): 5 to 10 min
- apparent plasma half-life ([2]; after oral ingestion): approximately 0.8 hours
